Converted amounts (≈) assume the structure as drawn. The source made the active and inactive calls. The calls are words filed in the database; no cut-off is given here.
What was measured:
[1] = target: High affinity cGMP-specific 3',5'-cyclic phosphodiesterase 9A (Homo sapiens, UniProt O76083); experiment: Inhibition of full length human PDE9A expressed in Sf9 insect cells using [3H]-cGMP as substrate incubated for 60 mins by microbeta scintillation counter analysis
[2] = Blood clearance in Wistar rat at 1 mg/kg, po or 0.3 mg/kg, iv measured over 24 hrs by LC-MS/MS analysis; type: ADME, organism-based; details: in vivo
[3] = Volume of distribution at steady state in Wistar rat at 1 mg/kg, po or 0.3 mg/kg, iv measured over 24 hrs by LC-MS/MS analysis; type: ADME, organism-based; details: in vivo
[4] = MRT in Wistar rat at 0.3 mg/kg, iv measured over 24 hrs by LC-MS/MS analysis; type: ADME, organism-based; details: in vivo
[5] = Oral bioavailability in Wistar rat at 1 mg/kg measured over 24 hrs by LC-MS/MS analysis; type: ADME, organism-based; details: in vivo
[6] = Blood clearance in dog at 1 mg/kg, po or 0.3 mg/kg, iv measured over 24 hrs by LC-MS/MS analysis; type: ADME, organism-based, Canis lupus familiaris; details: in vivo
[7] = Volume of distribution at steady state in dog at 1 mg/kg, po or 0.3 mg/kg, iv measured over 24 hrs by LC-MS/MS analysis; type: ADME, organism-based, Canis lupus familiaris; details: in vivo
[8] = MRT in dog at 0.3 mg/kg, iv measured over 24 hrs by LC-MS/MS analysis; type: ADME, organism-based, Canis lupus familiaris; details: in vivo
[9] = Oral bioavailability in dog at 1 mg/kg measured over 24 hrs by LC-MS/MS analysis; type: ADME, organism-based, Canis lupus familiaris; details: in vivo
[10] = Solubility of compound in PBS at pH 7 incubated for 24 hrs by UV based HPLC analysis; type: physicochemical; details: buffer, pH 7, 24 h
[11] = Protein binding in rat plasma assessed as fraction unbound incubated for 6 hrs by LC-MS/MS analysis; type: ADME, cell-free
[12] = Protein binding in human plasma assessed as fraction unbound incubated for 6 hrs by LC-MS/MS analysis; type: ADME, cell-free
[13] = target: T1, High affinity cGMP-specific 3',5'-cyclic phosphodiesterase 9A (Mus musculus, UniProt O70628); experiment: Inhibition of mouse PDE9A expressed in recombinant CHO cells coexpressing soluble guanylate cyclase incubated for 6 mins by [3H]-cGMP scintillation proximity assay; type: cell-based
T1 sequence (O70628 whole entry): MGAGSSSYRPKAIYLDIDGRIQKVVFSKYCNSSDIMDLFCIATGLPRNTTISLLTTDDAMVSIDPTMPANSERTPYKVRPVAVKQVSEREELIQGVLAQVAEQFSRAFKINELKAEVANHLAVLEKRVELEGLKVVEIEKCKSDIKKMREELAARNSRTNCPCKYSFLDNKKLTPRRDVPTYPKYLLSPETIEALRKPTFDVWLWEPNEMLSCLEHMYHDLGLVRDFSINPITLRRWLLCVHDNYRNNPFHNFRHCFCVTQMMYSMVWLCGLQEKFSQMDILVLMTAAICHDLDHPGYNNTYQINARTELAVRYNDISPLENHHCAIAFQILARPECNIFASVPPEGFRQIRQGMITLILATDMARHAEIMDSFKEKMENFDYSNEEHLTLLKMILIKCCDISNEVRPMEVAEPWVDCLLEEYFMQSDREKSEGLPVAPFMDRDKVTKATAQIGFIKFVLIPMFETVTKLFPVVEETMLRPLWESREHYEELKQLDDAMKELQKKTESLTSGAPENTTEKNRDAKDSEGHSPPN

[14] = Protein binding in mouse plasma assessed as fraction unbound incubated for 6 hrs by LC-MS/MS analysis; type: ADME, cell-free
[15] = Protein binding in dog plasma assessed as fraction unbound incubated for 6 hrs by LC-MS/MS analysis; type: ADME, cell-free, Canis lupus familiaris
[16] = Protein binding in monkey plasma assessed as fraction unbound incubated for 6 hrs by LC-MS/MS analysis; type: ADME, cell-free, Macaca mulatta; details: rhesus monkey
Cytochrome P450 2C9 = Cytochrome P450 2C9 (Homo sapiens, UniProt P11712); experiment: Inhibition of CYP2C9 in human liver microsomes using diclofenac as substrate by LC-MS/MS analysis; type: ADME, Microsome
[17] = Induction of CYP3A4 mRNA expression in human hepatocytes at 9.2 uM incubated for 48 hrs with media replacement for […] by qPCR analysis; type: ADME, cell-based, Hepatocyte
[18] = Stability in human hepatocytes assessed as drug degradation incubated for 4 hrs; type: ADME, cell-based, Hepatocyte
[19] = Toxicity in rat assessed as increase in blood pressure at 5 to 40 mg/kg, po administered once daily via gavage and measured every 5 mins by telemetry system based analysis; type: organism-based; details: in vivo, dose 5-40 mg/kg
[20] = Toxicity in rat assessed as increase in heart rate at 5 to 40 mg/kg, po administered once daily via gavage and measured every 5 mins by telemetry system based analysis; type: organism-based; details: in vivo, dose 5-40 mg/kg
[21] = Selectivity index, ratio of IC50 for bovine brain PDE1 to IC50 for full length human PDE9A
[22] = Solubility of compound in PBS at pH 6.5 at 50 mg/ml incubated for 24 hrs by LC/MS/MS or HPLC analysis; type: physicochemical; details: buffer, pH 6.5, 24 h
Homo sapiens [23] = organism: Homo sapiens; experiment: Selectivity index, ratio of IC50 for full length human PDE2A to IC50 for full length human PDE9A
Homo sapiens [24] = organism: Homo sapiens; experiment: Selectivity index, ratio of IC50 for full length human PDE3B to IC50 for full length human PDE9A
Homo sapiens [25] = organism: Homo sapiens; experiment: Selectivity index, ratio of IC50 for human platelet PDE5A to IC50 for full length human PDE9A
Homo sapiens [26] = organism: Homo sapiens; experiment: Selectivity index, ratio of IC50 for full length human PDE7B to IC50 for full length human PDE9A
Homo sapiens [27] = organism: Homo sapiens; experiment: Selectivity index, ratio of IC50 for full length human PDE8A to IC50 for full length human PDE9A
Homo sapiens [28] = organism: Homo sapiens; experiment: Selectivity index, ratio of IC50 for full length human PDE10A to IC50 for full length human PDE9A
Homo sapiens [29] = organism: Homo sapiens; experiment: Selectivity index, ratio of IC50 for full length human PDE11A to IC50 for full length human PDE9A
[30] = Blood clearance in po or iv dosed Wistar rat measured over 24 hrs by LC-MS/MS analysis; type: ADME, organism-based; details: in vivo
Rattus norvegicus = experiment: In vivo inhibition of PDE9A in Sprague-Dawley rat assessed as increase in cGMP level in urine at 10 to 50 mg/kg, po measured after 85 mins by ELISA; type: functional, organism-based; details: dose 10-50 mg/kg
[31] = Toxicity in rat assessed as increase in blood pressure at 10 to 50 mg/kg, po administered twice daily via gavage and measured every 5 mins by telemetry system based analysis; type: organism-based; details: in vivo, dose 10-50 mg/kg
[32] = Toxicity in rat assessed as increase in heart rate at 10 to 50 mg/kg, po administered twice daily via gavage and measured every 5 mins by telemetry system based analysis; type: organism-based; details: in vivo, dose 10-50 mg/kg
Mus musculus [33] = experiment: In vivo inhibition of PDE9A in mouse myocardial hypertrophy model with transverse aortic constriction assessed as reduction of hypertrophy of the left atrium at 10 mg/kg administered twice daily for 5 weeks; type: functional, organism-based
Mus musculus [34] = experiment: In vivo inhibition of PDE9A in mouse myocardial hypertrophy model with transverse aortic constriction assessed as improvement of heart function at 10 mg/kg administered twice daily for 5 weeks; type: functional, organism-based
Mus musculus [35] = experiment: In vivo inhibition of PDE9A in mouse myocardial hypertrophy model with transverse aortic constriction assessed as reduction in minimal diastolic left ventricular pressure at 10 mg/kg administered twice daily for 5 weeks; type: functional, organism-based
Homo sapiens [36] = organism: Homo sapiens; experiment: Selectivity index, ratio of IC50 for full length human PDE4B to IC50 for full length human PDE9A

High affinity cGMP-specific 3',5'-cyclic phosphodiesterase 9A (Homo sapiens, UniProt O76083), sequence (O76083 whole entry): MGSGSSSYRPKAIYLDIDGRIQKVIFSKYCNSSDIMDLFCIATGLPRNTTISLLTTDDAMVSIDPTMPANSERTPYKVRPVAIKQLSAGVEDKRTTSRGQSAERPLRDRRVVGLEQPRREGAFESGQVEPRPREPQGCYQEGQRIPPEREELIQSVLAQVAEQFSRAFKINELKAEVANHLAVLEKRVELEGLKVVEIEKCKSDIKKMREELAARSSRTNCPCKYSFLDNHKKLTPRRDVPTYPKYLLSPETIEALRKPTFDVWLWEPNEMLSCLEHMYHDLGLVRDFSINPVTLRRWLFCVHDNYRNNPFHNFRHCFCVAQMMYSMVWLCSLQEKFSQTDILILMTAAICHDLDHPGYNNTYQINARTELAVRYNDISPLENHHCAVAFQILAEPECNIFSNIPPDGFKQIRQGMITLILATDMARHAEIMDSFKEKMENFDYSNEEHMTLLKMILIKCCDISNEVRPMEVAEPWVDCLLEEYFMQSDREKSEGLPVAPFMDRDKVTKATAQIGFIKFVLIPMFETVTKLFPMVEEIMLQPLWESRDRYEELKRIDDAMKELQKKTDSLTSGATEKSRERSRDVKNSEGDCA
Cytochrome P450 2C9, sequence (P11712 whole entry): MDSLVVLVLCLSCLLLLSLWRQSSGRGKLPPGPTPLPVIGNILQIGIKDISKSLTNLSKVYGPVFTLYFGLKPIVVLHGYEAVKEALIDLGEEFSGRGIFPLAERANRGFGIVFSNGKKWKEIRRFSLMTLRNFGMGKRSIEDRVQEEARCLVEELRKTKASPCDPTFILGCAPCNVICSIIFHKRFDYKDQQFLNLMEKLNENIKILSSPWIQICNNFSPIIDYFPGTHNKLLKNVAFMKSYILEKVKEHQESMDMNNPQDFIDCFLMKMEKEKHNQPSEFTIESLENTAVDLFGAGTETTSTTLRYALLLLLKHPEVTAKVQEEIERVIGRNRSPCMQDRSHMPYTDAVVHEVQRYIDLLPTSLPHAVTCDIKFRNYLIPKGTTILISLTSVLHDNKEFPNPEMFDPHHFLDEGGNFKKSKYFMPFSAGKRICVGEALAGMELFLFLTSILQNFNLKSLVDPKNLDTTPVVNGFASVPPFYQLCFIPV

Compound: CCCC1CNCc2c1[nH]c(=O)c(C#N)c2N1CCC2(CC1)CC2.Cl (stereo in doubt; form 2)
- IC50 [1]: 15 nM
- CL [2]: 40 mL/min/kg
- Vdss [3]: 4.5 L/kg
- MRT [4]: 1.9 h
- F ([5]; po, 1 mg/kg, 24 h): 61%
- CL [6]: 15 mL/min/kg
- Vdss [7]: 3 L/kg
- MRT [8]: 4 h
- F [9]: 80%
- solubility [10]: > 500 µg/mL
- Fu [11]: 20%
- Fu [12]: 34%
- EC50 [13]: 1000 nM
- Fu [14]: 41%
- Fu [15]: 43%
- Fu [16]: 42%
- IC50 (Cytochrome P450 2C9): 16000 nM
- Activity [17]: Active
- Stability [18]: Stable
- Activity [19]: Non-Toxic
- Activity [20]: Non-Toxic

Compound: CCCC1CNCc2c1[nH]c(=O)c(C#N)c2N1CCC2(CC2)C(F)(F)C1 (racemic)
- IC50 [1]: 100 nM
- Ratio IC50 [21]: 9

Compound: CC1(C)CCN(c2c(C#N)c(=O)[nH]c3cccnc23)CC1
- IC50 [1]: 330 nM

Compound: Cc1ccc(-c2c(C#N)c(=O)[nH]c3cccnc23)cc1
- IC50 [1]: 725 nM

Compound: Cc1ccc(-c2c3c([nH]c(=O)c2C#N)C(C)CCC3)cc1 (racemic)
- IC50 [1]: 310 nM
- Ratio IC50 [21]: 3
- solubility [22]: 9 µg/mL (≈ 32.3 µM)

Compound: CCCC1CCCc2c(-c3ccc(C)cc3)nc(=O)[nH]c21 (racemic)
- IC50 [1]: 13400 nM

Compound: CCCC1CNCc2c1[nH]c(=O)c(C#N)c2N1CCC(C)(C)CC1.Cl (stereo not given)
- Ratio IC50 (Homo sapiens [23]): > 100
- Ratio IC50 (Homo sapiens [24]): > 100
- Ratio IC50 (Homo sapiens [25]): > 100
- Ratio IC50 (Homo sapiens [26]): > 100
- Ratio IC50 (Homo sapiens [27]): > 100
- Ratio IC50 (Homo sapiens [28]): > 100
- Ratio IC50 (Homo sapiens [29]): > 100
- CL [30]: 46.7 mL/min/kg

Compound: CCCC1CNCc2c1[nH]c(=O)c(C#N)c2N1CCC(C)CC1 (racemic)
- IC50 [1]: 200 nM

Compound: C[C@@H]1CN(Cc2ncccn2)C[C@H]1c1nc2c(cnn2C2CCOCC2)c(=O)[nH]1 [EDELINONTRINE]
- CL [2]: 50 mL/min/kg
- Vdss [3]: 2.2 L/kg
- MRT [4]: 0.8 h
- bioavailability ([5]; Wistar): 41%
- CL [6]: 8.3 mL/min/kg
- Vdss [7]: 1.5 L/kg
- MRT [8]: 3.1 h
- F [9]: 38%
- inhibition (Rattus norvegicus): Active
- Activity [31]: Non-Toxic
- Activity [32]: Non-Toxic
- inhibition (Mus musculus [33]): Active
- inhibition (Mus musculus [34]): Active
- inhibition (Mus musculus [35]): Active

Compound: CCCC1CCCc2c1[nH]c(=O)c(C#N)c2-c1ccc(C)cc1 (stereo not given)
- Ratio IC50 (Homo sapiens [23]): 69
- Ratio IC50 (Homo sapiens [24]): 69
- Ratio IC50 (Homo sapiens [25]): 69
- Ratio IC50 (Homo sapiens [26]): 69
- Ratio IC50 (Homo sapiens [27]): 69
- Ratio IC50 (Homo sapiens [28]): 69
- Ratio IC50 (Homo sapiens [29]): 69
- Ratio IC50 (Homo sapiens [36]): 69
